Measurements as given in patent publication US9981940B2, “Aryl sulfide derivatives and aryl sulfoxide derivatives as acaricides and insecticides” (BAYER CROPSCIENCE AKTIENGESELLSCHAFT, priority 2013, dated 2018).

How the values were obtained:
Tetranychus urticae = Tetranychus urticae spray test, OP-resistant (TETRUR); format: in vivo; details: after 6 days; for pest or weed control at 500 g/ha: Tetranychus urticae, 144 h, read-out: efficacy
How it was run: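 Mortality as % efficacy (0% = no mites killed) read 6 days after spraying. Formulation: active ingredient in acetone/dimethylformamide plus emulsifier, diluted with emulsifier-containing water, applied to Phaseolus vulgaris leaf discs carrying every life stage of OP-resistant spider mites.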

[1] = log P by HPLC (OECD Guideline 117), method [b] neutral range; format: physicochemical; details: HPLC; for chromatographic logP: reversed-phase C18 HPLC column, neutral range, pH 7.8; for logP[b]: method [b] neutral range
Experimental: (§1) The log P values were determined analogously to OECD Guideline 117 (EC Directive 92/69/EEC) by HPLC (high-performance liquid chromatography) using reversed-phase columns (C 18), by the following methods:
[b] The LC-MS determination in the neutral range is effected at pH 7.8 with 0.001 molar aqueous ammonium hydrogencarbonate solution and acetonitrile as eluents; linear gradient from 10% acetonitrile to 95% acetonitrile.

[2] = log P by HPLC (OECD Guideline 117), method [a] acidic range; format: physicochemical; details: for chromatographic logP: reversed-phase C18 HPLC column, acidic range; for logP[a]: HPLC, method [a] acidic range
Experimental: as §1
[a] The LC-MS determination in the acidic range is effected at pH 2.7 with 0.1% aqueous formic acid and acetonitrile (contains 0.1% formic acid) as eluents; linear gradient from 10% acetonitrile to 95% acetonitrile.

[3] = pH 2.7, HPLC method [a], read-out: logP[a]
[4] = pH 2.7, HPLC, pH 2.7, read-out: log P[a]

CC1=C(C)C(=O)N(c2cc(SCC(F)(F)F)c(C)cc2F)C1=O [Example 339, 1-{2-Fluoro-4-methyl-5-[(2,2,2-trifluoroethyl)sulphanyl]phenyl}-3,4-dimethyl-1H-pyrrole-2,5-dione]
pest or weed control at 500 g/ha (Tetranychus urticae; application rate of 500 g/ha): 90% | chromatographic logP [1]: 3.61 | chromatographic logP [2, 3]: 3.6 | chromatographic logP [2, 4]: 3.6

CCOc1nn(-c2cc(SCC(F)(F)F)c(C)cc2F)c(=O)n1C [Example 129]
efficacy (Tetranychus urticae; application rate of 500 g/ha): 90% | logP[b] [1]: 3.14 | logP[a] [2]: 3.19

Cc1cc(F)c(-n2nc(C(F)(F)F)n(C(C)(C)C)c2=O)cc1[S+]([O-])CC(F)(F)F (racemic) [Example 68]
efficacy (Tetranychus urticae; application rate of 500 g/ha): 100% | logP[b] [1]: 3.49 | logP[a] [2]: 3.54

CCn1ccn(-c2cc([S+]([O-])CC(F)(F)F)c(C)cc2F)c1=O (stereo not shown) [Example 487, 1-Ethyl-3-{2-fluoro-4-methyl-5-[(2,2,2-trifluoroethyl)sulphinyl]phenyl}-1,3-dihydro-2H-imidazol-2-one]
pest or weed control at 500 g/ha (Tetranychus urticae; application rate of 500 g/ha): 90% | chromatographic logP [1]: 1.81 | chromatographic logP [2, 3]: 1.83 | chromatographic logP [2, 4]: 1.83

Cc1cc(F)c(-n2nc(N(C)C)n(C)c2=O)cc1SCC(F)(F)F [Example 190]
efficacy (Tetranychus urticae; application rate of 500 g/ha): 90% | logP[b] [1]: 2.81 | logP[a] [2]: 2.84

Cc1cc(F)c(-n2nc(SCC3CC3)n(C)c2=O)cc1[S+]([O-])CC(F)(F)F (racemic) [Example 280]
efficacy (Tetranychus urticae; application rate of 500 g/ha): 100% | logP[b] [1]: 2.75 | logP[a] [2]: 2.82

Cc1ccc(-n2nc(OC(C)C)n(C3CC3)c2=O)cc1SCC(F)(F)F [Example 91]
efficacy (Tetranychus urticae; application rate of 500 g/ha): 100% | logP[b] [1]: 4.54 | logP[a] [2]: 4.59

Cc1cc(F)c(-n2nc(SCC(F)(F)F)n(C3CC3)c2=O)cc1SCC(F)(F)F [Example 254]
efficacy (Tetranychus urticae; application rate of 500 g/ha): 90% | logP[b] [1]: 3.84 | logP[a] [2]: 3.89

CCn1c(OCC(F)(F)F)nn(-c2cc(SCC(F)(F)F)c(C)cc2F)c1=O [Example 398]
efficacy (Tetranychus urticae; application rate of 500 g/ha): 100% | logP[b] [1]: 3.79 | logP[a] [2]: 3.84

Cc1cc(F)c(-n2nc(SCC(F)(F)F)n(C)c2=O)cc1[S+]([O-])CC(F)(F)F (racemic) [Example 282]
efficacy (Tetranychus urticae; application rate of 500 g/ha): 100% | logP[b] [1]: 2.52 | logP[a] [2]: 2.57

Cc1cc(C)c(-n2nc(C(F)(F)F)n(C3CC3)c2=O)cc1SCC(F)(F)F [Example 48]
efficacy (Tetranychus urticae; application rate of 500 g/ha): 100% | logP[b] [1]: 4.09 | logP[a] [2]: 4.13

CCCCOC1=CC(=O)N(c2cc([S+]([O-])CC(F)(F)F)c(C)cc2F)C1 (stereo not shown) [Example 326]
efficacy (Tetranychus urticae; application rate of 500 g/ha): 90% | logP[b] [1]: 2.88 | logP[a] [2]: 2.91

Cc1cc(F)c(-n2nc(N(C)C)n(N)c2=O)cc1[S+]([O-])CC(F)(F)F (stereo not shown) [Example 221]
efficacy (Tetranychus urticae; application rate of 500 g/ha): 100% | logP[b] [1]: 1.60 | logP[a] [2]: 1.63

CSc1nn(-c2cc([S+]([O-])CC(F)(F)F)c(C)cc2F)c(=O)n1C (stereo not shown) [Example 260]
efficacy (Tetranychus urticae; application rate of 500 g/ha): 100% | logP[b] [1]: 2.03 | logP[a] [2]: 2.07

C=CCn1c(SC)nn(-c2cc(SCC(F)(F)F)c(C)cc2F)c1=O [Example 271]
efficacy (Tetranychus urticae; application rate of 500 g/ha): 100% | logP[b] [1]: 3.58 | logP[a] [2]: 3.61

C=CCn1c(SC(C)C)nn(-c2cc([S+]([O-])CC(F)(F)F)c(C)cc2F)c1=O (racemic) [Example 285]
efficacy (Tetranychus urticae; application rate of 500 g/ha): 100% | logP[b] [1]: 3.17 | logP[a] [2]: 3.24

Cc1cc(F)c(-n2nc(C(C)C)n(N)c2=O)cc1S(=O)(=O)CC(F)(F)F [Example 417]
efficacy (Tetranychus urticae; application rate of 500 g/ha): 100% | logP[b] [1]: 2.21 | logP[a] [2]: 2.25

Cc1ccc(-n2nc(OC3CCCCC3)n(C)c2=O)cc1SCC(F)(F)F [Example 155]
efficacy (Tetranychus urticae; application rate of 500 g/ha): 100% | logP[b] [1]: 5.17 | logP[a] [2]: 5.22

Cc1cc(F)c(-n2nc([S+]([O-])Cc3ccccc3)n(C)c2=O)cc1[S+]([O-])CC(F)(F)F (stereo not shown) [Example 250]
efficacy (Tetranychus urticae; application rate of 500 g/ha): 100% | logP[b] [1]: 2.29 | logP[a] [2]: 2.34

CCSc1nn(-c2cc(SCC(F)(F)F)c(C)cc2F)c(=O)n1C [Example 273, 5-(Ethylsulphanyl)-2-{2-fluoro-4-methyl-5-[(2,2,2-trifluoroethyl)sulphanyl]phenyl}-4-methyl-2,4-dihydro-3H-1,2,4-triazol-3-one]
pest or weed control at 500 g/ha (Tetranychus urticae; application rate of 500 g/ha): 100% | chromatographic logP [1]: 3.44 | chromatographic logP [2, 3]: 3.51 | chromatographic logP [2, 4]: 3.51

Cc1cc(F)c(-n2nc(N(C)C)n(C3CC3)c2=O)cc1SCC(F)(F)F [Example 193]
efficacy (Tetranychus urticae; application rate of 500 g/ha): 100% | logP[b] [1]: 3.15 | logP[a] [2]: 3.20

COC1=CC(=O)N(c2cc(SCC(F)(F)F)c(Cl)cc2F)C1 [Example 327]
efficacy (Tetranychus urticae; application rate of 500 g/ha): 90% | logP[b] [1]: 2.92 | logP[a] [2]: 2.97

COCc1nn(-c2cc(SCC(F)(F)F)c(C)cc2F)c(=S)n1C1CC1 [Example 492]
efficacy (Tetranychus urticae; application rate of 500 g/ha): 100% | logP[b] [1]: 3.43 | logP[a] [2]: 3.49

CNn1c(N(C)C)nn(-c2cc([S+]([O-])CC(F)(F)F)c(C)cc2F)c1=O (stereo not shown) [Example 217]
efficacy (Tetranychus urticae; application rate of 500 g/ha): 90% | logP[b] [1]: 1.98 | logP[a] [2]: 2.02

Cc1cc(F)c(-n2nc([S+]([O-])CC(F)F)n(C3CC3)c2=O)cc1[S+]([O-])CC(F)(F)F (stereo not shown) [Example 229]
efficacy (Tetranychus urticae; application rate of 500 g/ha): 90% | logP[b] [1]: 2.07 | logP[a] [2]: 2.10

Cc1cc(F)c(-n2nc(CC(C)C)n(C3CC3)c2=S)cc1SCC(F)(F)F [Example 493]
efficacy (Tetranychus urticae; application rate of 500 g/ha): 100% | logP[b] [1]: 4.35 | logP[a] [2]: 4.44

O=c1n(-c2cc([S+]([O-])CC(F)(F)F)c(Br)cc2F)nc(OCC(F)(F)F)n1C1CC1 (racemic) [Example 383]
efficacy (Tetranychus urticae; application rate of 500 g/ha): 100% | logP[b] [1]: 3.26 | logP[a] [2]: 3.27

Cc1cc(F)c(-n2nc(C3CC3)n(C)c2=O)cc1SCC(F)(F)F [Example 346]
efficacy (Tetranychus urticae; application rate of 500 g/ha): 90% | logP[b] [1]: 2.92 | logP[a] [2]: 2.97

Cc1cc(Cl)c(-n2nc(OCC(C)(C)C)n(C3CC3)c2=O)cc1[S+]([O-])CC(F)(F)F (stereo not shown) [Example 404]
efficacy (Tetranychus urticae; application rate of 500 g/ha): 100% | logP[b] [1]: 3.71 | logP[a] [2]: 3.79

COC1=CC(=O)N(c2cc(SCC(F)(F)F)c(C)cc2F)C1 [Example 310, 1-{2-Fluoro-4-methyl-5-[(2,2,2-trifluoroethyl)sulphanyl]phenyl}-4-methoxy-1,5-dihydro-2H-pyrrol-2-one]
pest or weed control at 500 g/ha (Tetranychus urticae; application rate of 500 g/ha): 100% | chromatographic logP [1]: 2.81 | chromatographic logP [2, 3]: 2.87 | chromatographic logP [2, 4]: 2.87

CCCOc1nn(-c2cc(SCC(F)(F)F)c(C)cc2F)c(=O)n1C1CC1 [Example 113]
efficacy (Tetranychus urticae; application rate of 500 g/ha): 90% | logP[b] [1]: 3.92 | logP[a] [2]: 4.00

Cc1cc(F)c(N2CC(OC(C)C)=CC2=O)cc1[S+]([O-])CC(F)(F)F (stereo not shown) [Example 325]
efficacy (Tetranychus urticae; application rate of 500 g/ha): 100% | logP[b] [1]: 2.43 | logP[a] [2]: 2.46

C=CCn1c(OCC(F)(F)F)nn(-c2cc([S+]([O-])CC(F)(F)F)c(C)cc2F)c1=O (stereo not shown) [Example 407]
efficacy (Tetranychus urticae; application rate of 500 g/ha): 90% | logP[b] [1]: 2.90 | logP[a] [2]: 2.94

Cc1cc(F)c(-n2ncn(C3CC3)c2=O)cc1[S+]([O-])CC(F)(F)F (racemic) [Example 62]
efficacy (Tetranychus urticae; application rate of 100 g/ha): 100% | logP[b] [1]: 1.69 | logP[a] [2]: 1.69

CCCOc1nn(-c2ccc(C)c([S+]([O-])CC(F)(F)F)c2)c(=O)n1C (stereo not shown) [Example 133]
efficacy (Tetranychus urticae; application rate of 500 g/ha): 90% | logP[b] [1]: 2.86 | logP[a] [2]: 2.93

CCn1c(SC)nn(-c2cc(SCC(F)(F)F)c(C)cc2F)c1=O [Example 269]
efficacy (Tetranychus urticae; application rate of 500 g/ha): 100% | logP[b] [1]: 3.44 | logP[a] [2]: 3.53

CCn1c(Cl)nn(-c2cc([S+]([O-])CC(F)(F)F)c(C)cc2F)c1=O (stereo not shown) [Example 436]
efficacy (Tetranychus urticae; application rate of 500 g/ha): 100% | logP[b] [1]: 2.30 | logP[a] [2]: 2.34
